Test results taken from patent publication US10779537B2, “1H-pyrrolopyridine compound, N-oxide thereof or salt thereof, agricultural and horticultural insecticide comprising the compound, and method for using the insecticide” (Nihon Nohyaku Co., Ltd., priority 2016, dated 2020).

Legend:
Laodelphax striatellus = assay: Insecticidal test on Laodelphax striatellus (rice seedling dip); type: in vivo; conditions: 192 h, rice seedlings dipped 30 seconds, ten 3rd-instar larvae, 8 days after inoculation, read-out: insecticidal efficacy (corrected mortality rate)
Description: Insecticidal Test on Laodelphax striatellus
The condensed heterocyclic compounds represented by the general formula (1) of the present invention or salts thereof were separately dispersed in water and diluted to 500 ppm. Rice plant seedlings (variety: Nihonbare) were dipped in the agrochemical dispersions for 30 seconds. After air-dried, each seedling was put into a separate glass test tube and inoculated with ten 3rd-instar larvae of Laodelphax striatellus, and then the glass test tubes were capped with cotton plugs. At 8 days after the inoculation, the numbers of surviving larvae and dead larvae were counted, the corrected mortality rate was calculated according to the formula shown below, and the insecticidal efficacy was evaluated according to the criteria shown below. Corrected mortality rate (%)=100×(Survival rate in a non-treatment plot−Survival rate in a treatment plot)/Survival rate in a non-treatment plot [Math. 2] Corrected Mortality Rate A: the corrected mortality rate is 100%. B: the corrected mortality rate is 90 to 99%. C: the corrected mortality rate is 80 to 89%. D: the corrected mortality rate is 50 to 79%.

Plutella xylostella = assay: Insecticidal test on Plutella xylostella (dip of Chinese cabbage seedlings with laid eggs); type: in vivo; conditions: 144 h, seedlings with laid eggs dipped about 30 seconds, 25° C., 6 days after dip treatment, criteria of Test Example 2, read-out: insecticidal efficacy (corrected mortality rate, hatched larvae)
Description: Insecticidal Test on Plutella xylostella
Adults of Plutella xylostella were released onto Chinese cabbage seedlings and allowed to lay eggs thereon. At 2 days after the release of the adults, the Chinese cabbage seedlings with laid eggs were dipped for about 30 seconds in agrochemical dispersions diluted to 500 ppm, each of which contained a different condensed heterocyclic compound represented by the general formula (1) of the present invention as an active ingredient. After air-dried, the seedlings were kept in a thermostatic chamber at 25° C. At 6 days after the dip treatment, the number of hatched larvae per plot was counted, the mortality rate was calculated according to the formula shown below, and the insecticidal efficacy was evaluated according to the criteria of Test Example 2. This test was conducted in triplicate using 10 adults of Plutella xylostella per plot. Corrected mortality rate (%)=100×(Number of hatched larvae in a non-treatment plot−Number of hatched larvae in a treatment plot)/Number of hatched larvae in a non-treatment plot [Math. 3]

| Structure (SMILES) | mortality at 500 ppm (Laodelphax striatellus) [%] | mortality at 500 ppm (Plutella xylostella) [%] |
| --- | --- | --- |
| CCS(=O)(=O)c1cc(C(F)(F)F)cnc1-c1[nH]c2cc(C(F)(F)F)cnc2c1F [Compound 1-75, 2-(3-ethylsulfonyl-5-trifluoromethylpyridin-2-yl)-3-fluoro-6-trifluoromethyl-1H-pyrrolo[3,2-b]pyridine] | 100 | 100 |
| CCS(=O)(=O)c1cc(C(F)(F)F)cnc1-c1[nH]c2cc(C(F)(F)F)cnc2c1Cl [Compound 1-76, 2-(3-ethylsulfonyl-5-trifluoromethylpyridin-2-yl)-3-chloro-6-trifluoromethyl-1H-pyrrolo[3,2-b]pyridine] | 100 | 100 |
| CCS(=O)(=O)c1cc(C(F)(F)F)cnc1-c1[nH]c2cc(C(F)(F)F)cnc2c1Br [Compound 1-77, 2-(3-ethylsulfonyl-5-trifluoromethylpyridin-2-yl)-3-bromo-6-trifluoromethyl-1H-pyrrolo[3,2-b]pyridine] | 100 | 100 |
| CCS(=O)(=O)c1cc(C(F)(F)F)cnc1-c1c(Cl)c2ncc(C(F)(F)F)cc2n1C(C)=O [Compound 3-3, 1-acetyl-2-(3-ethylsulfonyl-5-trifluoromethylpyridin-2-yl)-3-chloro-6-trifluoromethyl-1H-pyrrolo[3,2-b]pyridine] | 100 | 100 |
